Values of other authors as cited in US6359007B1 (ChronoRX, LLC, priority 1999, dated 2002).
Read-outs that look alike come from different tables or passages of the source. Values belong to the compound of their own block, whether it stands above or below them.

Experiments:
[1] = stomach in the "fed" state
[2] = in vivo
[3] = not given; remark: listed apart in the source
[4] = per meal, curvilinear falloff

SMILES: N=C(N)NCCC[C@H](N)C(=O)O [L-arginine]
gastrointestinal uptake of dietary arginine [1]: about 38%

SMILES: [Zn+2] [Zn^+2, Zinc]
increase of mean plasma Zn^+2 above pre-load levels ([3]; 11-fold increase in Zn^+2 intake): About 37%
Zn^+2 absorption ([3]; in vivo): 40% to 86
ingested Zn^+2 entering the plasma ([3]; in vivo): About 37%
time by which gastrointestinal absorption is essentially complete ([3]; in vivo): ≤ 4 h

SMILES: [Mg+2] [Mg^+2, Magnesium]
maximum bolus absorption [4]: 8 meq

The next lines start with the values.

mean steady state plasma concentration (daily oral dose 200 mg): 12 mg/L
mean steady state plasma concentration (daily oral dose 2500 mg): 15 mg/L
SMILES: O=C1O[C@H]([C@@H](O)CO)C(O)=C1O [AA, ascorbic acid]

Absorption (via carrier-mediated transport) [2]: 30-40%
absorption of ingested Cu^+2 [2]: 30-40%
SMILES: [Cu+2] [Cu^+2, Copper]
